{"source": "patent US20160151369A1", "about": "“SUBSTITUTED 3-PHENYLPROPYLAMINE DERIVATIVES FOR THE TREATMENT OF OPHTHALMIC DISEASES AND DISORDERS” (ACUCELA INC., priority 2013, published 2016)", "key": {"[1]": {"tested_on": "isomerase (recovery of 11-cis-retinal after bleaching)", "experiment": "In vivo murine isomerase assay (Table 3)", "conditions": "Mus musculus, po, 4 h, mice, Dose 1 mg/kg", "procedure": "The capability of compounds described herein to inhibit isomerase was determined by an in vivo murine isomerase assay. […] The recovery of 11-cis-retinal after bleaching can be used to estimate the activity of isomerase in vivo. Delayed recovery, as represented by lower 11-cis-retinal oxime levels, indicates inhibition of isomerization reaction.\nMice were gavaged with the test compound. […] The mice were allowed to recover 2 hours in the dark. The animals were then sacrificed by carbon dioxide inhalation. Retinoids were extracted from the eye and the regeneration of 11-cis-retinal was assessed at various time intervals.\nAfter the mice were sacrificed, the eyes were immediately removed and placed in liquid nitrogen for storage.\nThe eyes were placed in 500 μL of bis-tris propane buffer (10 mM, pH˜7.3) and 20 μL of 0.8M hydroxile amine (pH˜7.3). The eyes were cut up into small pieces with small iris scissors and then thoroughly homogenized at 30000 rpm with a mechanical homogenizer (Polytron PT 1300 D) in the tube until no visible tissue remained. 500 μL of methanol and 500 μL of heptane were added to each tube. The tubes were attached to a vortexer so that the contents were mixed thoroughly for 15 minutes in room temperature. The organic phase was separated from the aqueous phase by centrifugation for 10 min at 13K rpm, 4° C. 240 μL of the solution from the top layer (organic phase) was removed and transferred to clean 300 μl glass inserts in HPLC vials using glass pipette and the vials were crimped shut tightly.\nThe samples were analyzed on an Agilent 1100 HPLC system with normal phase column: SILICA (Beckman Coutlier, dp 5 μm, 4.6 mM×250 mM). […] Loading volume for each sample was 100 μl; detection wavelength was 360 nm. The area under the curve for 11-cis retinal oxime was calculated by Agilent Chemstation software and was recorded manually. Data processing was performed using Prizm software.\nPositive control mice (no compound administered) were sacrificed fully dark-adapted and the eye retinoids analyzed. Light (bleached) control mice (no compound administered) were sacrificed and retinoids isolated and analyzed immediately after light treatment.\nA time course study was performed to determine the isomerase inhibitory activity of the test compound. […] The animals were then “photo-bleached” (5000 Lux white light for 10 minutes) at 2, 4, 8, 16 and 24 hours after dosing, and returned to darkness to allow recovery of the 11-cis-retinal content of the eyes. Mice were sacrificed 2 hours after bleaching, eyes were enucleated, and retinoid content is analyzed by HPLC.\nRecovery control mice (vehicle-only treated) were light-treated and left to recover for 2 hours in the dark before sacrifice and analysis. Light control mice (vehicle only treated) were sacrificed for analysis immediately after photo-bleaching.\nAn in vivo dose response isomerase inhibition study was performed with test compound. […] Recovery and retinoid analysis were performed as described above. Dark control mice were vehicle-only treated, sacrificed fully dark adapted without light treatment, and analyzed. Recovery control mice and light control mice were included in the study as per the initial phase."}, "[2]": {"tested_on": "regeneration of 11-cis-retinal (isomerase)", "experiment": "Single dose time course in the in vivo isomerase assay at 0.3 mg/kg (compound A vs compound D)", "conditions": "BALB/c mice, single oral dose 0.3 mg/kg; for inhibition at 0.3 mg/kg: Mus musculus, read-out: Percent Inhibition, 0.3 mg/kg, Avg. % Inhibition", "description": "(§1) All test compounds were stored at room temperature, dessicated.\nOn the day prior to dose administration 3-amino-1-(3-((tetrahydro-2H-pyran-4-yl)methoxy)phenyl)propan-1-ol (compound A) and 3-amino-1-(3-((tetrahydro-2H-pyran- 2-yl)methoxy)phenyl)propan-1-ol (compound D) were weighed into new empty glass vials. The compounds were dissolved in di-water at the concentration of 0.068 mg/mL and stored overnight at 4° C.\n52 Male BALB/c mice (Charles River Laboratories) were used for this study. The mice were approximately 8 weeks at the initiation of dosing with an average body weight of 23 grams.\nThe day prior to dose administration 52 BALB/c mice were placed into a dark room and dark adapted for a minimum of 12 hours prior to dose administration. The mice were maintained in the dark for the duration of the study.\nEach animal was removed from its cage and dosed accordingly to the study design in Table 10 (see below). Each animal was administered 0.1 mL of the appropriate test article or vehicle orally using a 1 mL syringe fitted with a 23 gauge oral gavage needle. At 2, 4, 6, 8, 16 or 24 hours following dose administration, animals were removed from the dark and exposed to 5000 Lux white light for 10 minutes to photobleach their eyes. Following the completion of the photobleach the animals were returned to the dark for 2 hours to allow for the regeneration of 11-cis-retinal in the eyes. Two hours after photobleaching each animal was euthanized with carbon dioxide followed by cervical dislocation, in the dark under red light. The light control group was euthanized immediately following photobleaching. Immediately following the cervical dislocation both eyes of each animal were removed and transferred into separate tubes, flash frozen in liquid nitrogen and stored in the dark at −80° C. until processing and analysis.\n(§2) All sample processing procedures were performed in the dark under red light.\nExtracted samples were analyzed using an Agilent 1100 HPLC system according to the procedure outlined in Table 12 (see below)\n(§3) HPLC analysis of the eyes measures the peak area units of the 110 cis-Ral-Oxime_syn. Signal.\n(§4) Data analysis % inhibition (drug vs. recovery control). % control (drug vs. light control), and One-way ANOVA (followed by Tukey's Multiple Comparison) were performed using peak area units and performed by Prism software. Data are represented as mean and standard deviation."}, "[3]": {"tested_on": "retinal isomerase activity (regeneration of 11-cis-retinal)", "experiment": "Comparative in vivo murine isomerase assay, dose response (compound A vs compound D)", "design": "species or system BALB/c mice", "description": "as §1\nOn the day prior to dose administration compound A and compound D were weighed into new empty glass vials. The compounds were dissolved in di-water at the concentration of 0.833 mg/mL compound A and 0.892 mg/mL compound D, serially diluted into various concentrations, and stored overnight at 4 OC.\n56 Male BALB/c mice (Charles River Laboratories) were used for this study. The mice were approximately 8 weeks at the initiation of dosing with an average body weight of 24 grams.\nThe day prior to dose administration 56 BALB/c mice were placed into a dark room and dark adapted for a minimum of 12 hours prior to dose administration. The mice were maintained in the dark for the duration of the study.\nEach animal was removed from its cage and dosed accordingly to the study design in Table 4 (see below). Each animal was administered 0.1 mL of the appropriate compound or vehicle via oral gavage using a 1 mL syringe fitted with a 23 gauge oral gavage needle. Two hours following dose administration, animals were removed from the dark and exposed to 5000 Lux white light for 10 minutes to photobleach their eyes.\nFollowing the completion of the photobleach the animals were returned to the dark for 2 hours to allow for the regeneration of 11-cis-retinal in the eyes. Two hours after photobleaching each animal was euthanized with carbon dioxide followed by cervical dislocation, in the dark under red light. The light control group was euthanized immediately following photobleaching. Immediately following the cervical dislocation both eyes of each animal were removed and transferred into separate tubes, flash frozen in liquid nitrogen and stored in the dark at −80° C. until processing and analysis.\nas §2\nExtracted samples were analyzed using an Agilent 1100 HPLC system according to the procedure outlined in Table 6 (see below)\nas §3, §4"}}, "note": "Like-named read-outs stand apart in the source and are kept apart here.", "data": [{"smiles": "NCCC(O)c1cccc(OCC2CCCCO2)c1", "note": "(centres unmarked) [compound D, reference compound]", "values": [{"measurement": "inhibition at 1 mg/kg", "setting": "[1]", "value": 57, "unit": "%"}, {"measurement": "Percent Control, 0.3 mg/kg (average)", "setting": "[2]; Time Point 2 Hours", "value": 86.8, "unit": "%"}, {"measurement": "Percent Control, 0.3 mg/kg (average)", "setting": "[2]; Time Point 4 Hours", "value": 101.8, "unit": "%"}, {"measurement": "Percent Control, 0.3 mg/kg (average)", "setting": "[2]; Time Point 6 Hours", "value": 87.9, "unit": "%"}, {"measurement": "Percent Control, 0.3 mg/kg (average)", "setting": "[2]; Time Point 8 Hours", "value": 94.6, "unit": "%"}, {"measurement": "Percent Control, 0.3 mg/kg (average)", "setting": "[2]; Time Point 16 Hours", "value": 104.1, "unit": "%"}, {"measurement": "Percent Control, 0.3 mg/kg (average)", "setting": "[2]; Time Point 24 Hours", "value": 89.5, "unit": "%"}, {"measurement": "inhibition at 0.3 mg/kg", "setting": "[2]; Time Point 2 Hours", "value": 13.2, "unit": "%"}, {"measurement": "inhibition at 0.3 mg/kg", "setting": "[2]; Time Point 4 Hours", "value": -1.8, "unit": "%"}, {"measurement": "inhibition at 0.3 mg/kg", "setting": "[2]; Time Point 6 Hours", "value": 12.1, "unit": "%"}, {"measurement": "inhibition at 0.3 mg/kg", "setting": "[2]; Time Point 8 Hours", "value": 5.4, "unit": "%"}, {"measurement": "inhibition at 0.3 mg/kg", "setting": "[2]; Time Point 16 Hours", "value": -4.1, "unit": "%"}, {"measurement": "inhibition at 0.3 mg/kg", "setting": "[2]; Time Point 24 Hours", "value": 10.5, "unit": "%"}, {"measurement": "dose at which 11-cis-retinal recovery was inhibited by 50% (called IC50)", "setting": "[3]; BALB/c mice, single oral dose, 2 h, dose response experiment", "value": 0.59, "unit": "mg/kg"}, {"measurement": "inhibition at 0.03 mg/kg", "setting": "[3]; Mus musculus, po, 2 h, BALB/c mice, single oral dose 0.03 mg/kg, bleach 2 h after dose, drug vs. recovery control, read-out: Percent Inhibition at 2 Hours, Avg. % Inhibition", "value": -5.3, "unit": "%"}, {"measurement": "inhibition at 0.1 mg/kg", "setting": "[3]; Mus musculus, po, 2 h, BALB/c mice, single oral dose 0.1 mg/kg, bleach 2 h after dose, drug vs. recovery control, read-out: Percent Inhibition at 2 Hours, Avg. % Inhibition", "value": -23.9, "unit": "%"}, {"measurement": "inhibition at 0.3 mg/kg", "setting": "[3]; Mus musculus, po, 2 h, BALB/c mice, single oral dose 0.3 mg/kg, bleach 2 h after dose, drug vs. recovery control, read-out: Percent Inhibition at 2 Hours, Avg. % Inhibition", "value": -2.1, "unit": "%"}, {"measurement": "inhibition at 0.5 mg/kg", "setting": "[3]; Mus musculus, po, 2 h, BALB/c mice, single oral dose 0.5 mg/kg, bleach 2 h after dose, drug vs. recovery control, read-out: Percent Inhibition at 2 Hours, Avg. % Inhibition", "value": 41.4, "unit": "%"}, {"measurement": "inhibition at 1 mg/kg", "setting": "[3]; Mus musculus, po, 2 h, BALB/c mice, single oral dose 1 mg/kg, bleach 2 h after dose, drug vs. recovery control, read-out: Percent Inhibition at 2 Hours, Avg. % Inhibition", "value": 70.2, "unit": "%"}, {"measurement": "inhibition at 3 mg/kg", "setting": "[3]; Mus musculus, po, 2 h, BALB/c mice, single oral dose 3 mg/kg, bleach 2 h after dose, drug vs. recovery control, read-out: Percent Inhibition at 2 Hours, Avg. % Inhibition", "value": 100, "unit": "%"}, {"measurement": "activity at 0.03 mg/kg", "setting": "[3]; Mus musculus, BALB/c mice, single oral dose 0.03 mg/kg, bleach 2 h after dose, read-out: Percent control at 2 Hours (Avg. % Inhibition)", "value": 105, "unit": "%"}, {"measurement": "activity at 0.1 mg/kg", "setting": "[3]; Mus musculus, BALB/c mice, single oral dose 0.1 mg/kg, bleach 2 h after dose, read-out: Percent control at 2 Hours (Avg. % Inhibition)", "value": 124, "unit": "%"}, {"measurement": "activity at 0.5 mg/kg", "setting": "[3]; Mus musculus, BALB/c mice, single oral dose 0.5 mg/kg, bleach 2 h after dose, read-out: Percent control at 2 Hours (Avg. % Inhibition)", "value": 58.6, "unit": "%"}, {"measurement": "activity at 1 mg/kg", "setting": "[3]; Mus musculus, BALB/c mice, single oral dose 1 mg/kg, bleach 2 h after dose, read-out: Percent control at 2 Hours (Avg. % Inhibition)", "value": 29.8, "unit": "%"}, {"measurement": "activity at 3 mg/kg", "setting": "[3]; Mus musculus, BALB/c mice, single oral dose 3 mg/kg, bleach 2 h after dose, read-out: Percent control at 2 Hours (Avg. % Inhibition)", "value": 0, "unit": "%"}, {"measurement": "dose showing nearly 100% inhibition", "setting": "[3]; dose response experiment, 2 h", "value": 3.0, "unit": "mg/kg"}]}]}
